Read-outs that look alike come from different tables or passages of the source.
Test system: pathogens, such as virus, e.g. cold and/or flu
Conditions: in vivo

C=C(C)[C@@H]1CCC(C)=C[C@H]1c1c(O)cc(CCCCC)cc1O [type A CBD, Cannabidiol]
Activity (potency) in protection against pathogens, compared with type B CBD: significantly more active
Activity (potency) in protection against pathogens, compared with type B CBD (listed as crystal structure A): significantly more potent

Reference: patent publication US20250281393A1, “BODY CAVITY GEL” (CS MEDICA A/S, priority 2021, published 2025)
